# Experimental data from patent US10710979B2, “EGFR kinase inhibitor and preparation method and use thereof” (ZHEJIANG BOSSAN PHARMACEUTICAL CO. LTD., priority 2015, dated 2020).
# Tests used:
# human melanoma cell A375 = test: Effect of compounds on proliferation of tumor cells (MTT), A375; type: cell-based; conditions: A-375, 72 hours
# Method: (§1) Human lung cancer cells H1975, H522, human hepatoma cell HepG2, human melanoma cell A375, human epidermal cancer cell A431, and human colon cancer cells COLO205 were cultivated. The cells were collected when they have grown to logarithmic growth phase, and centrifuged at 1000 rpm for 5 min, from which the supernatant was discarded, and the rest was suspended with appropriate amount of medium, and the concentration of cells was adjusted to 2.5-5.5×10^4/ml (once it was 3.0-5.5×10^4/ml). The cell suspension was inoculated into a 96-well cell culture plate with 100 μl per well, and placed in a cell incubator (37° C., 5% CO2) for 24 hours, and then 100 μl of the drug diluted in the cell culture medium was added to each well of the drug group. Three duplicate wells were set for each drug, and the negative control group was medium containing 0.5% DMSO. After being incubated for 72 hours in the incubator, 20 μl of MTT (5 mg/ml) was added to each well, which was placed under 37° C. for 3 hours. 150 μl of DMSO was added to each well and shaken at 37° C. for 5 mins, and absorbance (OD) was determined at 492 nm. The Prism Graphpad statistical software was used to calculate IC50 values.
# [1] = system: human lung cancer cells H1975; test: Effect of compounds on proliferation of tumor cells (MTT), H1975; type: cell-based; conditions: for IC50: Homo sapiens, NCI-H1975, H1975 cells, 72 hours, MTT
# Method: as §1
# [2] = system: human epidermal cancer cell A431; test: Effect of compounds on proliferation of tumor cells (MTT), A431; type: cell-based; conditions: A-431, 72 hours
# Method: as §1
# [3] = system: human hepatoma cell HepG2; test: Effect of compounds on proliferation of tumor cells (MTT), HepG2; type: cell-based; conditions: 72 hours
# Method: as §1
# [4] = system: subcutaneously transplanted lung cancer H1975 tumors; test: In vivo efficacy in inhibiting human lung cancer H1975 xenograft; parameters: species or system BALB/c nude mice; conditions: 30.0 mg/kg ig qd × 14 d; for Inhibition rate of tumor IR (tumor weight): tumor weight on day 14 vs negative control
# Method: The inhibitory effect of ES series compounds to subcutaneously transplanted lung cancer H1975 tumors in nude mice was evaluated.
# BALB/c nude mice, female, weighing 17-20 g, purchased from Beijing Weitong Lihua Experimental Animal Technology Co., Ltd. (license number: SCXK (Beijing) 2012-0001). Feeding environment: SPF grade animal room, free feeding, 12 h light/12 h dark.
# Under aseptic conditions, H1975 cells in the proliferation stage were taken, whose cell concentration was adjusted after digestion, and seeded at armpit of nude mice with a volume of 0.1 mL. Tumor diameter was measured with vernier caliper, and after the tumor was grown to about 400 mm^3, 30 tumor-bearing mice were selected, which were randomly divided into 5 groups according to the size of the tumors. Each group was dosed according to the set dosing regimen, and the administering day was recorded as D1. The negative control group was given the same amount of vehicle. The longer and shorter diameters of tumor were measured twice a week; meanwhile the body weights of mice were weighed.
# The relevant indicators were observed, measured and recorded on the first day of dosing. During the experiment, the tumor size was measured with a vernier caliper to observe the volume change and growth rate of the tumor mass. Tumor-bearing mice were sacrificed at the end of the experiment and the tumor mass was dissected and weighed.
# Efficacy evaluation indicators include: relative tumor proliferation rate and weight, general status and other related toxicity indicators. At the end of the experiment, the tumor growth curve and weight change curve were drawn for each group.
# The calculation formula of tumor volume (TV) is: TV=1/2×a×b^2, in which a and b respectively represent the longer and shorter diameters of the tumor. The relative tumor volume (RTV) was calculated based on the measured results and the formula was: RTV=Vt/V0, in which V0 is the tumor volume measured before dosing, and Vt is the tumor volume at each measurement after dosing.
# The evaluation index of anti-tumor activity is relative tumor proliferation rate T/C (%), and the formula is as follows: […], TRTV: treatment group's RTV; CRTV: negative control group's RTV. T/C (%)≤40% and statistical treatment P<0.05 mean effective. The tumor weight (TW) is lower than that of the negative control group and statistical treatment P<0.05 mean effective. Inhibition rate of tumor IR (%)=(1−TTW/CTW)×100%, TTW: treatment group's TW; CTW: negative control group's TW.
# The data was expressed as Mean±SD, and t-tests were used for comparison between groups.
# [5] = system: human lung cancer cells H522; test: Effect of compounds on proliferation of tumor cells (MTT), H522; type: cell-based; conditions: NCI-H522, 72 hours
# Method: as §1
# [6] = system: human colon cancer cells COLO205; test: Effect of compounds on proliferation of tumor cells (MTT), COLO205; type: cell-based; conditions: COLO 205, 72 hours
# Method: as §1
IC50 (human melanoma cell A375),IC50 [1],IC50 [2],IC50 [3],IC50 [5],IC50 [6],SMILES,Inhibition rate of tumor IR (tumor weight) [4],Inhibitory concentration relative to control compound 1686 ([1]; for most of the tumor cells of Test Example 1),Volume of subcutaneous tumors / anti-tumor effect ([4]; after 14 days)
2740 nM,36.7 nM,1270 nM,3540 nM,,,C=CC(=O)Nc1cccc(Nc2nc(Nc3cnc(N4CCN(C)CC4)cc3OC)ncc2C(F)(F)F)c1 [ES-075],37.27%,,
19000 nM,168 nM,7500 nM,18900 nM,5110 nM,5490 nM,C=CC(=O)Nc1cccc(Nc2nc(Nc3cnc(N4CCN(C(=O)C5COC5)CC4)nc3OC)ncc2C(F)(F)F)c1 [ES-163],,,
18200 nM,74.5 nM,5720 nM,12600 nM,1390 nM,6050 nM,C=CC(=O)Nc1cccc(Nc2nc(Nc3cnc(N4CCN(C(=O)N(C)C)CC4)nc3OC)ncc2C(F)(F)F)c1 [ES-164],,,

# Further lines, the compound ahead of its results:
SMILES,IC50 (human melanoma cell A375),IC50 [1],IC50 [2],IC50 [3],IC50 [5],IC50 [6],Inhibition rate of tumor IR (tumor weight) [4],Inhibitory concentration relative to control compound 1686 ([1]; for most of the tumor cells of Test Example 1),Volume of subcutaneous tumors / anti-tumor effect ([4]; after 14 days)
"C=CC(=O)Nc1cccc(Nc2nc(Nc3ccc(N4CCN(C(C)=O)CC4)cc3OC)ncc2C(F)(F)F)c1 [Compound 1686, reference compound]",3000 nM,52.5 nM,1570 nM,1490 nM,522 nM,4720 nM,50.09%,,
C=CC(=O)Nc1cccc(Nc2nc(Nc3ccc(N4CCN(C(C)=O)CC4)nc3OC)ncc2C(F)(F)F)c1 [ES-071],2260 nM,22.8 nM,992 nM,968 nM,,,50.93%,½,
C=CC(=O)Nc1cccc(Nc2nc(Nc3ccc(N4CCN(C)CC4)nc3OC)ncc2C(F)(F)F)c1 [ES-072],2400 nM,34.2 nM,774 nM,3310 nM,,,79.42%,,better than that of the positive control group CO-1686
